The source of these data is patent publication US20260297060A1, “COMPOUNDS FOR THE DEGRADATION OF MUTANT BRAF” (C4 THERAPEUTICS, INC., priority 2023, published 2026).

For data set [1], the system named is A375 human melanoma xenografts. As to the kind of experiment: Example 8 efficacy study in A375 human melanoma xenografts (tumor volume, T/C, TGI). The following applies: 35 mg/kg, p.o., QD × 21 days. It is filed as in vivo, BALB/c nude mice. As to the method: (§1) For efficacy study, agents were tested in the A375 human melanoma xenografts model. Compound 8, Compound 26, and Compound 38 were administered to BALB/c nude mice bearing A375 xenografts from day 0 and dosed p.o. twice per day (BID). Compound 8 and Compound 26 were dosed at 10 mg/kg for 21 days. Compound 38 was dosed at 10 mg/kg for 10 days. The known BRAF inhibitor encorafenib was used as a positive control. encorafenib was administered from day 1 and dosed p.o. daily (QD) for 21 days and dosed at 35 mg/kg.
The A375 tumor cells were maintained in vitro in DMEM medium supplemented with […] and 1% Penicillin-Streptomycin at 37° C. in an atmosphere of 5% CO2 in air. The tumor cells were routinely subcultured twice weekly. The cells growing in an exponential growth phase were harvested and counted for tumor inoculation.
Each mouse was inoculated subcutaneously at the right flank with A375 cells (5×10^6) in 0.2 mL of PBS supplemented with Matrigel (PBS:Matrigel=1:1) for tumor development. Animals were grouped for treatment 16 days after tumor inoculation when the average tumor volume reached 234 mm^3 for efficacy study and 382 mm^3 for PKPD study. The test articles administration and the animal numbers in each group are shown in the above experimental tables.
Prior to the onset of drug treatment, mice were measured for tumor size in two dimensions using a caliper, and the tumor volume (mm^3) was calculated using formula V=0.5 a×b^2 where a and b are the long and short diameters of the tumor in mm, respectively. Mice were randomized into different treatment groups based on the tumor volume.
The major endpoint was to see if the tumor growth could be delayed or mice could be cured. The tumor size was then used for calculations of T/C value. The T/C value (in percent) is an indication of antitumor effectiveness; T and C are the mean volumes of the treated and control groups, respectively on specified day.
TGI was calculated for each group using the formula: TGI (%)=[1−(Ti−T0)/(Ci−C0)]×100; Ti is the average tumor volume of a treatment group on a given day, T0 is the average tumor volume of the treatment group on the day of treatment start, Ci is the average tumor volume of the vehicle control group on the same day with Ti, and C0 is the average tumor volume of the vehicle group on the day of treatment start.
In general terms: In xenograft studies the graft and the host belong to different species.

Data set [2] in a line: Example 8 pharmacokinetics assay for efficacy study (plasma, liver). The settings on record: mouse, po, 35 mg/kg, p.o., QD × 21 days. The format is in vivo, BALB/c nude mice. As to the method:
as §1
The plasma samples were collected at predetermined time points for PK analysis. For non-termination plasma collection, blood samples were collected into the 1.5 mL Eppendorf tubes containing 3 μL of 0.5 M EDTA-K2. For termination plasma collection, the mice were euthanized at predetermined time points post the treatment and the blood samples were collected into the 1.5 mL Eppendorf tubes containing 15 μL of 0.5 M EDTA-K2. And then the anticoagulant blood samples were centrifuged at 2,500 g at 4° C. for 15 minutes. The plasma samples were separated into 2 aliquots. The 1st was used for PK analysis, and the 2nd served as backup. The samples were stored at −80° C. before bioanalysis.
Liver samples were collected at predetermined time points for PK analysis. The left lobe of the liver was dissected out and split into 2 parts. The 1st part was used for PK analysis and the 2nd part served as the backup for the study. The samples were transferred into pre-labeled tubes and quickly froze in liquid nitrogen within 2 minutes after dissection. The samples were stored at −80° C. before bioanalysis.
The harvested plasma and liver samples were processed for pharmacokinetics analysis by LC-MS/MS with a concentration range of 2.0~2000 ng/mL for encorafenib in plasma and liver homogenate, 10.0-10,000 ng/mL for Compound 8 and Compound 38 in plasma and liver homogenate, 20.0~20,000 ng/mL for Compound 26 in plasma and liver homogenate.

The nature of data set [3]: Pharmacokinetics in female BALB/c nude mice bearing A375 xenografts, 1 day dosing (PK and PD study): plasma, tumor and brain concentrations, AUC. It is filed as in vivo. The settings on record: 100 mg/kg p.o. QD × 1 day; for Mean Concentration in Brain ± SEM / Mean Concentration in Plasma ± SEM: BQL: below the lower limit of quantitation. The source says:
The concentrations of Dabrafenib, Compound 26 and Compound 141 in the treatment of female BALB/c nude mice bearing A375 xenografts are shown in Table 62-Table 72 and FIG. 52-FIG. 73.

Setting [4] is: mouse, brain, po, 100 mg/kg, read-out: Mean Concentration in Brain ± SEM.
[5] abbreviates: mouse, plasma, po, 100 mg/kg, read-out: Mean Concentration in Plasma ± SEM.
[6] abbreviates: mouse, tumor, po, 100 mg/kg, read-out: Mean Concentration in Tumor ± SEM.

Each structure is given as a SMILES string. Like-named read-outs stand apart in the source and are kept apart here.

Broadly, the T/C is the result in the treated group divided by that in the control group, in per cent. Usually TGI stands for the reduction of tumour growth relative to the control group. For the compound `COC(=O)N[C@@H](C)CNc1nccc(-c2cn(C(C)C)nc2-c2cc(Cl)cc(NS(C)(=O)=O)c2F)n1` [Encorafenib, encorafenib, reference compound], the T/C in data set [1] (PG-D21) is on record as 14.94%. Besides, in data set [1] (PG-D21), the TGI is on record as 98.67%. The “Tumor Size on PG-D21 (Mean ± SEM)” value in data set [1] (PG-D21) worked out at 254 ± 19 mm^3. For the same compound, the “Tumor Volume (mean ± SEM)” value in data set [1] (day 0) is given as 234 ± 6 mm^3; in data set [1] (day 3) it was 329 ± 17 mm^3; in data set [1] (day 6) it was 347 ± 21 mm^3; in data set [1] (day 9), 251 ± 20 mm^3; in data set [1] (day 13), 194 ± 16 mm^3; in data set [1] (day 17), 194 ± 15 mm^3. Further, in data set [1] (day 21), the “Tumor Volume (mean ± SEM)” value is 254 ± 19 mm^3. For the same compound, the concentration at 6 h worked out at 186 ± 87.2 ng/g in data set [2] (liver, read-out: Concentration in Liver (mean ± SEM)) and 336 ± 150 ng/mL in data set [2] (plasma, read-out: Concentration in Plasma (mean ± SEM)).

As a reminder, the AUC is concentration integrated over time. As to `CC(C)(C)c1nc(-c2cccc(NS(=O)(=O)c3c(F)cccc3F)c2F)c(-c2ccnc(N)n2)s1` [Dabrafenib, dabrafenib, reference compound], the “Mean Concentration in Brain ± SEM” value in data set [3] (10 h) is reported as “BQL^a”; in data set [3] (24 h) it was “BQL”. Moreover, the “Mean Concentration in Plasma ± SEM” value in data set [3] (36 h) and in data set [3] (48 h) was “BQL” each time. The concentration at 1 h in data set [3] (setting [4]) was found to be 1040 ± 349 ng/g; in data set [3] (setting [5]) it was 7490 ± 1360 ng/mL; in data set [3] (setting [6]), 8660 ± 4660 ng/g. Further, the results for the concentration at 4 h in data set [3] (setting [4]), in data set [3] (setting [5]) and in data set [3] (setting [6]) were 6.13 ng/g, 110 ± 37.6 ng/mL and 442 ± 257 ng/g, respectively. Also, the concentration at 48 h in data set [3] (mouse, brain, po, 100 mg/kg, 48 h, read-out: Mean Concentration in Brain ± SEM) worked out at 15.2 ng/g; in data set [3] (mouse, tumor, po, 100 mg/kg, 48 h, read-out: Mean Concentration in Tumor ± SEM) it was 4.66 ng/g. Also, the AUC at 24 h came out at 1580 ng·h/mL in data set [3] (mouse, brain, po, read-out: Brain AUC at 24 hours, Average); 32100 ng·h/mL in data set [3] (mouse, plasma, po, read-out: Plasma AUC at 24 hours, Average); 1680 ng·h/mL in data set [3] (mouse, tumor, po, read-out: Tumor AUC at 24 hours, Average). The concentration at 0.25 h in data set [3] (mouse, plasma, po, 100 mg/kg, 0.25 h, read-out: Mean Concentration in Plasma ± SEM) stood at 62200 ± 10900 ng/mL. Further, the concentration at 0.5 h in data set [3] (mouse, plasma, po, 100 mg/kg, 0.5 h, read-out: Mean Concentration in Plasma ± SEM) was found to be 44700 ± 11600 ng/mL. The concentration at 2 h in data set [3] (mouse, plasma, po, 100 mg/kg, 2 h, read-out: Mean Concentration in Plasma ± SEM) was 844 ± 198 ng/mL. In addition, the concentration at 8 h in data set [3] (mouse, plasma, po, 100 mg/kg, 8 h, read-out: Mean Concentration in Plasma ± SEM) amounted to 55.6 ± 15.5 ng/mL. Also, the concentration at 10 h came to 25.9 ± 2.09 ng/mL in data set [3] (mouse, plasma, po, 100 mg/kg, 10 h, read-out: Mean Concentration in Plasma ± SEM) and 18 ± 1.88 ng/g in data set [3] (mouse, tumor, po, 100 mg/kg, 10 h, read-out: Mean Concentration in Tumor ± SEM). Further, the concentration at 24 h in data set [3] (mouse, plasma, po, 100 mg/kg, 24 h, read-out: Mean Concentration in Plasma ± SEM) amounted to 0.616 ng/mL; in data set [3] (mouse, tumor, po, 100 mg/kg, 24 h, read-out: Mean Concentration in Tumor ± SEM) it was 253 ng/g.
